From US8232274B2, “Pyridazinone derivatives useful as glucan synthase inhibitors” (Albany Molecular Research, Inc., priority 2007, dated 2012) come the findings set out here.

Each structure is given as a SMILES string.

Test [1] has as its target T1, glucan synthase (Candida albicans, UniProt O13428).
T1 construct: glucan synthase sources (2 μL permeabilized PM503 cells, or 3 μL membrane preparations from either PM503, BWP17, or ND158); endogenous in cells; host or cells: C. albicans strain BWP17, 100,000 g membrane fraction
Nature of the test: β(1,3) glucan synthase assay, C. albicans BWP17 membrane preparation (IC50). The format is biochemical. Conditions: in vitro fungal enzyme activity assay, read-out: IC50 (μg/mL) Candida albicans (converted). On the procedure: (§1) β(1,3) Glucan Synthase Assay:
(§2) 2. Preparation of Membrane Fraction of Yeast Cells
(§3) The protocol was modified from Douglas et al. (Journal of Bacteriology, 176, 5686-5696, 1994). For the preparation of S. cerevisiae and C. albicans membrane fractions, 1 liter of YPD supplemented with 0.02 mg/mL adenine and 0.08 mg/mL uracil was inoculated with 10 mL starter culture of PM503 (OD600=4) or the C. albicans strain BWP17 (OD600=12) in the same medium and grown at 30° C. until OD600 reached about 1. A. fumigatus (stain ND158) membranes were prepared by first preparing a spore suspension from agar slants by adding 6 mL of sterile saline, 0.1% Tween-20 solution to each slant, and resuspending by pipetting and scraping. The spore suspensions were used to inoculate two 200 mL flasks containing Sabouraud dextrose broth media. Cultures were incubated at 37° C., 250 rpm for ˜8 hrs. All cells, S. cerevisiae, C. albicans or A. fumigatus were harvested by centrifugation at 5,300 g at 4° C. for 40 minutes. After washing with 100 mL of breakage buffer (0.1 M KPi, pH 7.0, 1 mM EDTA, 1 mM DTT), the cell pellet was resuspended in 50 ml ice-cold breakage buffer. The mixture was transferred to a bead-beater chamber packed in ice (BioSpec Products, Bartlesville, Okla.). To each 50 mL sample was added 50 g of acid-washed glass beads ([…], Sigma). Cells were disrupted using 12×20 second pulses with 2 min-cooling intervals. Cell debris was removed by centrifugation at 3,000 g for 20 minutes at 4° C., and the supernatant was collected and centrifuged at 100,000 g for 1 hour at 4° C. to pellet the membrane fraction. The pellet was resuspended in 5 mL of ice-cold breakage buffer containing 25% glycerol, homogenized with a Dounce tissue homogenizer and stored at −80° C. in small aliquots.
(§4) 3. Glucan Synthase Assay and Compound Screening
The assay was performed according to Mo et at (Journal of Biological Chemistry, 269, 31267-31274, 1994) and Taft et al. (The Journal of Antibiotics, 47, 1001-1009, 1994), in a 96-well Optiplate (PerkinElmer). To each well was added 3 μL 10× compound stock (in 100% DMSO), or 3 μL of 30 μg/mL caspofungin in 100% DMSO (as positive control), or 3 μL 100% DMSO (as negative control), followed by the addition of appropriate amount of glucan synthase sources (2 μL permeabilized PM503 cells, or 3 μL membrane preparations from either PM503, BWP17, or ND158). The reaction was initiated by adding 25 μL reaction buffer (0.6 mM UDP-Glucose 0.6 nCi [U-^14C]DUP-Glucose (327 mCi/mmol, Amersham Bioscience), 20 μM GTP-γ-S, 25 mM NaF, 7.5 mg/mL BSA, 8% glycerol in 75 mM Tris-HCl, pH 7.5). The plate was incubated on a shaker for 1.5 hour at room temperature before being quenched with 250 μL 1% TCA (Trichloroacetic Acid). The quenched reaction was mixed by pipetting, and immediately transferred to a 96-well filter plate (Glass fiber B on 0.65 μm hydrophilic durapore membrane, Millipore) pre-wetted with wash buffer (5% TCA, 60 mM NaPPi). The glucan product was retained on the filter membrane by applying vacuum to the plate using a MultiScreen Resist Vacuum Manifold (Millipore). The filter plate was further washed 4 times with 200 μL wash buffer. The plate was dried at 50° C. for 30 minutes. 100 μL of Microscint-0 (PerkinElmer) was added to each well, and plate was counted in a TopCount NXT plate reader (PerkinElmer).
Dose-response curves were plotted from inhibition data generated. IC50 was determined by fitting the CPM versus the Concentration of the test compound plot with the following equation (4-parameter logistic model, ID Business Solutions XLfit 4.2).

Test [2] deals with T2, glucan synthase (Saccharomyces cerevisiae, UniProt P38631).
T2 construct: glucan synthase sources (2 μL permeabilized PM503 cells, or 3 μL membrane preparations from either PM503, BWP17, or ND158); endogenous in cells; host or cells: S. cerevisiae strain PM503, permeabilized cells or 100,000 g membrane fraction
T2 sequence (P06780 1-206): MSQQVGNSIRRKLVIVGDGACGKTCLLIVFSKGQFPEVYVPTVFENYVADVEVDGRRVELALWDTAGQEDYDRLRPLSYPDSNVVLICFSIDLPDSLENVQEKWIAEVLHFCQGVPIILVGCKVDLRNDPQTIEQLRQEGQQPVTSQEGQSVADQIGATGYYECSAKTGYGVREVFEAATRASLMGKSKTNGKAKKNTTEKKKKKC
T2 sequence (P38631 whole entry): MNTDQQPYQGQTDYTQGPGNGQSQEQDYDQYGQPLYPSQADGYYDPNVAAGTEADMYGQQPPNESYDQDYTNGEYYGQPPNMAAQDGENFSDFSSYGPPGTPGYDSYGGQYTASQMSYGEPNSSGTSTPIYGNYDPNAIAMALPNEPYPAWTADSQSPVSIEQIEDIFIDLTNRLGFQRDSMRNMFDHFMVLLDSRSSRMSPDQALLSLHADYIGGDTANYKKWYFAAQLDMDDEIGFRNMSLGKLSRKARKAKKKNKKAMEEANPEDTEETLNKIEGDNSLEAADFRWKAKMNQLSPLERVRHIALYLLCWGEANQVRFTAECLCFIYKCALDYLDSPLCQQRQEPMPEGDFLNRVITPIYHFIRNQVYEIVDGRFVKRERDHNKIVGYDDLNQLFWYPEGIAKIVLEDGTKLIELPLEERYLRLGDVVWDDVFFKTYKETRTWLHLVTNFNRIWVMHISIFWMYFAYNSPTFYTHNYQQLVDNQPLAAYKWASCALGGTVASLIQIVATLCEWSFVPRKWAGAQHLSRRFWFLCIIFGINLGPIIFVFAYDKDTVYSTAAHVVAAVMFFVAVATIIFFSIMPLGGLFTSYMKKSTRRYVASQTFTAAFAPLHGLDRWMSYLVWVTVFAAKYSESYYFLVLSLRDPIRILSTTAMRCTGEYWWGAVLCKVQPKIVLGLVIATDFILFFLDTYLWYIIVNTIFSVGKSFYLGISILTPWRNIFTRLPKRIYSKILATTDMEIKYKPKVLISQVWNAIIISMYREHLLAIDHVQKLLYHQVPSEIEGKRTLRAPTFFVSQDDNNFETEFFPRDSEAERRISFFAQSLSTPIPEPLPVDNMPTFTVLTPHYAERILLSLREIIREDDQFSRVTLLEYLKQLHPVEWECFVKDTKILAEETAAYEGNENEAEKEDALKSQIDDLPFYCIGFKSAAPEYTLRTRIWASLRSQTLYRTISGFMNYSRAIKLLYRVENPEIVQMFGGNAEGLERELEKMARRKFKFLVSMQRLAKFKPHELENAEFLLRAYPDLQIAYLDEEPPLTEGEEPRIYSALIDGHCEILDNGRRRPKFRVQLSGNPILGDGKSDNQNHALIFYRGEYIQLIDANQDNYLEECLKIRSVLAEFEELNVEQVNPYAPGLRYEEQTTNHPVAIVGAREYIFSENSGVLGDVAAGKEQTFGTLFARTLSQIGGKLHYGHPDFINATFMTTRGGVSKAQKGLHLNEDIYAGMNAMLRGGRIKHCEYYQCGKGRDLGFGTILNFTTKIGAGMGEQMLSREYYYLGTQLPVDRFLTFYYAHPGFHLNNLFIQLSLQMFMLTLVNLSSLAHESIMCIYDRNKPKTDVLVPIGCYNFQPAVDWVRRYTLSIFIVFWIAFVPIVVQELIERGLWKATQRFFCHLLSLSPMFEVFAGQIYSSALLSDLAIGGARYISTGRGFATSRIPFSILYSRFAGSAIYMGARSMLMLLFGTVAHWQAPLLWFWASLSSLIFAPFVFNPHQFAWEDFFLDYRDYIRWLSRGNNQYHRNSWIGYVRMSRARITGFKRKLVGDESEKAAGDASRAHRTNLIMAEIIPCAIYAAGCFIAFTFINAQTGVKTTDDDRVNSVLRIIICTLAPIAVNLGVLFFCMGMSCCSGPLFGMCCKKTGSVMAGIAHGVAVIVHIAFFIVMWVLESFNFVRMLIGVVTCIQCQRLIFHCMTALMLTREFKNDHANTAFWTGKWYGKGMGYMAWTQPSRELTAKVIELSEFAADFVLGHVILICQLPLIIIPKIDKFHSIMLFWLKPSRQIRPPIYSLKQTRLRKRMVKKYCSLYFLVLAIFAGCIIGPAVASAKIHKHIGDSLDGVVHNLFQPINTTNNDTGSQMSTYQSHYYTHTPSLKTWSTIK
Nature of the test: β(1,3) glucan synthase assay, S. cerevisiae PM503 permeabilized cells or membrane preparation (IC50). The class given is biochemical. On the procedure: as §1
1. Preparation of Permeabilized Saccharomyces cerevisiae Cells.
Permeabilization of yeast cells was performed according to Crotti et al. (Analytical Biochemistry, 292, 8-16, 2001) with some modifications. A 10 ml-starter culture of the S. cerevisiae strain in YPD medium (1% yeast extract, 2% bacto-peptone, 2% dextrose) with OD600=3-4 was used to inoculate 1 liter of YPD. The culture was grown at 30° C. until […]. Cells were collected by centrifugation (5,300 g for 15 min at 4° C.) and resuspended in buffer (40 mM EDTA, 100 mM β-mercaptoethanol) at 1 g of cell pellet/3.5 ml buffer. The cell suspension was shaken for 30 min at 30° C., followed by centrifugation at 12,000 g for 10 min at 4° C. The cell pellet was washed with 5 ml 0.8 M sorbitol and resuspended in 6.8 ml of 2.9 mM citric acid, 11.3 mM dibasic sodium phosphate, 1 mM EDTA, 0.8 M sorbitol, with constant shaking at 30)C for 30 min. After centrifugation at 12,000 g for […] at 4° C., the pellet was resuspended in 31.3 ml 50 mM Tris-HCl, pH 7.0, and incubated on ice for 5 min. The mixture was then centrifuged at 12,000 g for 10 min at 4 AC, and the pellet was resuspended in 1 ml of 50 mM Tris-HCl and 33% glycerol, pH 7.5. The permeabilized cell preparation was stored at […] in aliquots.
as §2, §3, §4
The assay was performed according to Mo et at (Journal of Biological Chemistry, 269, 31267-31274, 1994) and Taft et al. (The Journal of Antibiotics, 47, 1001-1009, 1994), in a 96-well Optiplate (PerkinElmer). To each well was added 3 μL 10× compound stock (in 100% DMSO), or 3 μL of 30 μg/mL caspofungin in 100% DMSO (as positive control), or 3 μL 100% DMSO (as negative control), followed by the addition of appropriate amount of glucan synthase sources (2 μL permeabilized PM503 cells, or 3 μL membrane preparations from either PM503, BWP17, or ND158). The reaction was initiated by adding 25 μL reaction buffer (0.6 mM UDP-Glucose 0.6 nCi [U-^14C]DUP-Glucose (327 mCi/mmol, Amersham Bioscience), 20 μM GTP-γ-S, 25 mM NaF, 7.5 mg/mL BSA, 8% glycerol in 75 mM Tris-HCl, pH 7.5). […]

T1 sequence (O13428 1-1897): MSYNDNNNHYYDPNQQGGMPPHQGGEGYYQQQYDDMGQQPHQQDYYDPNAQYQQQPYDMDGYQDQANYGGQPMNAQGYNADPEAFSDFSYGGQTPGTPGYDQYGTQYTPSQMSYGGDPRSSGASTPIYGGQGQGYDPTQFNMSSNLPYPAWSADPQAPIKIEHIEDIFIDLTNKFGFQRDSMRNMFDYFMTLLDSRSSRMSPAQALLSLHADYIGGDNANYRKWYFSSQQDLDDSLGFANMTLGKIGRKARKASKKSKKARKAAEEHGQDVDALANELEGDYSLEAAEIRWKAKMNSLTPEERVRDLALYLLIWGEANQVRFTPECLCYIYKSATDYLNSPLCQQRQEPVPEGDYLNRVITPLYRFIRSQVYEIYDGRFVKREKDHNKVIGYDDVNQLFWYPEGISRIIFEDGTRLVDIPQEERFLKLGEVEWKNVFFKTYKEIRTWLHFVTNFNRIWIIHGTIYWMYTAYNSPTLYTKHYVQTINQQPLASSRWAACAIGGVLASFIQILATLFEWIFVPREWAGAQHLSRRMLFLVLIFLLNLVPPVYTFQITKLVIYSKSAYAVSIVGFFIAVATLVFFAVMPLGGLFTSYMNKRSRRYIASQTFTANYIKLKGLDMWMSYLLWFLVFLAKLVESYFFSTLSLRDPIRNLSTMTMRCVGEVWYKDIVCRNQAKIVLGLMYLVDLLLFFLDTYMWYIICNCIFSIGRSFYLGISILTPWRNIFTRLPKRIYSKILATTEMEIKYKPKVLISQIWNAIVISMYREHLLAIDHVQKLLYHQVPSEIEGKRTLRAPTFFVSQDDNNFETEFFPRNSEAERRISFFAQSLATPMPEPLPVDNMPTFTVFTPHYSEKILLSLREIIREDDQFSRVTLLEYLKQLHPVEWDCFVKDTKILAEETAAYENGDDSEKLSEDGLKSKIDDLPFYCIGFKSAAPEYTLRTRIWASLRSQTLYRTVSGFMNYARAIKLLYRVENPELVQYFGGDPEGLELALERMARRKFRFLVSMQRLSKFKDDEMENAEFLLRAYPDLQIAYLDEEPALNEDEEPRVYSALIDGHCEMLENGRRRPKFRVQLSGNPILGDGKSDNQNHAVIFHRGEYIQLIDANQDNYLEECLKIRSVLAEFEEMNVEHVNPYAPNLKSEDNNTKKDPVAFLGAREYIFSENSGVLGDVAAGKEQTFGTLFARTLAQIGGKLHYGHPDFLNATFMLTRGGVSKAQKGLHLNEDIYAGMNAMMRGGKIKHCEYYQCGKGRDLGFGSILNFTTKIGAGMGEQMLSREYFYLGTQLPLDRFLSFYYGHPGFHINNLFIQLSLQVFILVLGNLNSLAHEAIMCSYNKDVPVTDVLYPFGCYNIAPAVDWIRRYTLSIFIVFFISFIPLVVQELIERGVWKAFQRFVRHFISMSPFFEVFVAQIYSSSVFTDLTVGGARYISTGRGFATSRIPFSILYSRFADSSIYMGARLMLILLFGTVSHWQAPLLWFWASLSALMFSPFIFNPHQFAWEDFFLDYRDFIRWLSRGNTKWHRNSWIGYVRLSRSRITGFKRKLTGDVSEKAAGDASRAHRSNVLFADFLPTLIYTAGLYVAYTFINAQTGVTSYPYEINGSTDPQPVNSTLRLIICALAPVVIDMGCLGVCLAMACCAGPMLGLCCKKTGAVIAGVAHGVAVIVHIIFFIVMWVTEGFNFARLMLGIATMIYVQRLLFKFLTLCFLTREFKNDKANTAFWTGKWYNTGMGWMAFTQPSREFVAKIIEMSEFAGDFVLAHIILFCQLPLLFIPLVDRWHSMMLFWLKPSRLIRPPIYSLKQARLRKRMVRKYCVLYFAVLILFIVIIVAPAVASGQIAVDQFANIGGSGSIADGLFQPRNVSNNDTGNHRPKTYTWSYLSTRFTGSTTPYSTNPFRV
T1 sequence (O42825 1-195 partner limits assumed): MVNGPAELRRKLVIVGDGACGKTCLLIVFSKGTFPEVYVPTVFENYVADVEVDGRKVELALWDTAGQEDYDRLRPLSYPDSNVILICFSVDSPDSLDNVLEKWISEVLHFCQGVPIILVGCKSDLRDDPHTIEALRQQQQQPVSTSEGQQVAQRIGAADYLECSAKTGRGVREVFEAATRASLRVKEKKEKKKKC

For `O=c1c(OC2CCCC2)c(N2CCN(S(=O)(=O)Cc3cc(Cl)cc(Cl)c3)CC2)cnn1-c1cccc(Cl)c1` [553Z], the IC50 on glucan synthase [1] is 351 nM; against glucan synthase [2], 184 nM.

Take `Nc1ccccc1CS(=O)(=O)N1CCN(c2cnn(-c3cc(F)cc(F)c3)c(=O)c2OC2CCCC2)CC1` [738Z]: the IC50 at glucan synthase [1] was 128 nM; at glucan synthase [2], 73.3 nM.

With `CC1(COc2c(N3CCN(S(=O)(=O)Cc4ccc(N)cc4)CC3)cnn(-c3cccc(Cl)c3)c2=O)CC1` [745Z], the results for the IC50 on glucan synthase [1] and at glucan synthase [2] were 110 nM and 73.5 nM, respectively.

Consider `CC1(COc2c(N3CCN(S(=O)(=O)Cc4cccc(N)c4)CC3)cnn(-c3cccc(Cl)c3)c2=O)CC1` [755Z], for which the IC50 on glucan synthase [1] is 73.5 nM; against glucan synthase [2] it was 91.9 nM.

`CC1(COc2c(N3CCN(S(=O)(=O)Cc4ccc(N)cc4)CC3)cnn(-c3cc(F)cc(F)c3)c2=O)CC1` [767Z]: the IC50 at glucan synthase [1] is 238 nM; at glucan synthase [2], 91.6 nM.

Consider `CC(C)S(=O)(=O)N1CCN(c2cnn(-c3cccc(F)c3)c(=O)c2OCCCCCCC(C)(C)F)CC1` [801Z], for which the IC50 at glucan synthase [1] was 55.5 nM; against glucan synthase [2], 18.5 nM.

Turning to `O=c1c(OC2CCCC2)c(N2CCN(S(=O)(=O)NCc3ccccc3)CC2)cnn1-c1cccc(Cl)c1` [808Z], the values for the IC50 at glucan synthase [1] and against glucan synthase [2] were 91.9 nM and 55.1 nM, respectively.

With `Nc1ccc(CS(=O)(=O)N2CCN(c3cnn(-c4cccc(Cl)c4)c(=O)c3OCC3(CF)CC3)CC2)cc1` [809Z], the IC50 is 196 nM at glucan synthase [1] and 71.2 nM against glucan synthase [2].

As for `Nc1ccc(CS(=O)(=O)N2CCN(c3cnn(-c4cc(F)cc(F)c4)c(=O)c3OCC3(CF)CC3)CC2)cc1` [932Z], the results for the IC50 at glucan synthase [1] and at glucan synthase [2] were 231 nM and 71 nM, respectively.

For the molecule `CC(Oc1c(N2CCN(S(=O)(=O)Cc3cccc(N)c3)CC2)cnn(-c2cc(F)cc(F)c2)c1=O)C(C)(C)C` (centres unmarked) [971Zbb], the IC50 is 2850 nM on glucan synthase [1] and 588 nM against glucan synthase [2].

Regarding `CS(=O)(=O)N1CCN(c2cnn(-c3cccc(Cl)c3)c(=O)c2OC2CCc3ccccc3C2)CC1` (centres unmarked) [974Z], the IC50 was 641 nM on glucan synthase [1] and 252 nM on glucan synthase [2].

Turning to `CC1(COc2c(N3CCN(S(=O)(=O)Cc4ccccc4)CC3)cnn(-c3cccc(Cl)c3)c2=O)CC1` [1035Z], the IC50 was 56.7 nM at glucan synthase [1] and 75.6 nM at glucan synthase [2].

Turning to `O=c1c(OCC2(CF)CC2)c(N2CCN(S(=O)(=O)Cc3ccccc3)CC2)cnn1-c1cccc(Cl)c1` [1122Z], the IC50 at glucan synthase [1] and against glucan synthase [2] was 54.8 nM each time.

As for `O=c1c(OC2Cc3ccccc3CC2F)c(N2CCN(S(=O)(=O)CF)CC2)cnn1-c1cc(F)cc(F)c1` (centres unmarked) [1267Z], the IC50 on glucan synthase [1] was 633 nM; at glucan synthase [2] it was 199 nM.

`O=c1c(OC2CCCC2)c(N2CCN(S(=O)(=O)Cc3ccccc3)CC2)cnn1-c1cccc(F)c1` [1402Z]: the IC50 is 117 nM on glucan synthase [1] and 39 nM against glucan synthase [2].

Consider `Nc1ccc(CS(=O)(=O)N2CCN(c3cnn(-c4cc(F)cc(F)c4)c(=O)c3OC3CCC(F)C3)CC2)cc1` (centres unmarked) [1529Z-6], for which the IC50 is 106 nM on glucan synthase [1] and 35.5 nM against glucan synthase [2].

As for `Nc1ccc(CS(=O)(=O)N2CCN(c3cnn(-c4cccc(Cl)c4)c(=O)c3OCc3ccccc3)CC2)cc1` [1529Z-19], the IC50 at glucan synthase [1] was 230 nM; on glucan synthase [2], 70.7 nM.

`CC1(COc2c(N3CCN(S(=O)(=O)Cc4ccc(Br)cc4)CC3)cnn(-c3cc(F)cc(F)c3)c2=O)CC1` [1529Z-33]: the IC50 was 32.8 nM at glucan synthase [1] and 16.4 nM against glucan synthase [2].

`CC1(COc2c(N3CCN(S(=O)(=O)Cc4cccc(N)c4)CC3)cnn(-c3cc(F)cc(F)c3)c2=O)CC1` [1529Z-40]: the IC50 at glucan synthase [1] and on glucan synthase [2] was 55 nM throughout.

`CC1(COc2c(N3CCN(S(=O)(=O)Cc4ccc(C#N)cc4)CC3)cnn(-c3cccc(Cl)c3)c2=O)CC1` [1529Z-56]: the IC50 at glucan synthase [1] was 108 nM; against glucan synthase [2] it was 307 nM.

For `CC1CCC(Oc2c(N3CCN(S(=O)(=O)Cc4cccc(N)c4)CC3)cnn(-c3ccccc3)c2=O)C1` (centres unmarked) [1529Z-70], the IC50 on glucan synthase [1] is 153 nM; against glucan synthase [2] it was 134 nM.

For `Nc1ccc(CS(=O)(=O)N2CCN(c3cnn(-c4cccc(Cl)c4)c(=O)c3OCC3CCC3)CC2)cc1` [1529Z-73], the IC50 is 349 nM at glucan synthase [1] and 165 nM against glucan synthase [2].

For `O=c1c(OCc2cccc(F)c2)c(N2CCN(S(=O)(=O)Cc3ccccc3)CC2)cnn1-c1cc(F)cc(F)c1` [1529Z-150], the IC50 on glucan synthase [1] is 175 nM; at glucan synthase [2], 70.1 nM.

`CC(C)(C)COc1c(N2CCN(S(=O)(=O)Cc3cccc(N)c3)CC2)cnn(-c2cccc(Cl)c2)c1=O` [1529Z-151]: the IC50 on glucan synthase [1] was 165 nM; at glucan synthase [2], 128 nM.

Turning to `CC(C)(C)COc1c(N2CCN(S(=O)(=O)Cc3ccc(N)cc3)CC2)cnn(-c2cc(F)cc(F)c2)c1=O` [1529Z-174], the figures for the IC50 on glucan synthase [1] and on glucan synthase [2] were 183 nM and 128 nM, respectively.

For `O=c1c(OCC2CC2(F)F)c(N2CCN(S(=O)(=O)Cc3ccccc3)CC2)cnn1-c1cc(F)cc(F)c1` (centres unmarked) [1529Z-180], the IC50 on glucan synthase [1] was 5.43 nM; on glucan synthase [2], 1.81 nM.

In the case of `CC1CC1COc1c(N2CCN(S(=O)(=O)Cc3ccccc3)CC2)cnn(-c2cc(F)cc(F)c2)c1=O` (centres unmarked) [1529Z-182], the IC50 on glucan synthase [1] was 18.8 nM; at glucan synthase [2] it was 1.88 nM.

Regarding `O=c1c(OCC2CC2)c(N2CCN(S(=O)(=O)Cc3ccccc3)CC2)cnn1-c1cccc(Cl)c1` [1529Z-185], the IC50 at glucan synthase [1] is 38.8 nM; at glucan synthase [2] it was 11.6 nM.
